Converted amounts (≈) assume the structure as drawn.
Assays:
Brain [1] = test: Drug level in rat brain at 240 mg/kg, po administered using compound, Lipoid S100 and pluronic f127 ratio 1:1:1 formulation; format: ADME, organism-based; set-up: dose 240 mg/kg, route oral; details: in vivo
Brain [2] = test: Drug level in rat brain at 240 mg/kg, po; format: ADME, organism-based; set-up: dose 240 mg/kg, route oral; details: in vivo
Plasma [3] = test: Plasma concentration in rat at 240 mg/kg, po administered using compound, Lipoid S100 and pluronic f127 ratio 1:1:1 formulation relative to non-formulated compound after 4 to 6 hrs; format: ADME, organism-based; set-up: dose 240 mg/kg, route oral; details: in vivo
[4] = Ratio drug level in brain to plasma of rat at 240 mg/kg, po after 8 hrs; format: ADME, organism-based; set-up: dose 240 mg/kg, route oral; details: brain and plasma, read-out: BPR
[5] = Ratio drug level in brain to plasma of rat at 240 mg/kg, po administered using compound, Lipoid S100 and pluronic f127 ratio 1:1:1 formulation after 8 hrs; format: ADME, organism-based; set-up: dose 240 mg/kg, route oral; details: read-out: BPR
[6] = Solubility of the compound in water at 5 mg/mL after 3 hrs by HPLC analysis; format: physicochemical
Plasma [7] = test: Plasma concentration in rat at 240 mg/kg, po administered using compound, Lipoid S100 and pluronic f127 ratio 1:1:1 formulation relative to non-formulated compound after 8 hrs; format: ADME, organism-based; set-up: dose 240 mg/kg, route oral; details: in vivo
[8] = Solubility of the compound in modified fasted state simulated intestinal fluid at 5 mg/mL after 3 hrs by HPLC analysis; format: physicochemical
[9] = Solubility of the compound in fasted state simulated intestinal fluid at compound to Lipoid S100 ratio 1:3 after 3 hrs by HPLC analysis in presence of 3:1 molar ratio of Lipoid S100 to tween 80; format: physicochemical
[10] = Solubility of the compound in fasted state simulated intestinal fluid at compound to Lipoid S100 ratio 1:1 after 3 hrs by HPLC analysis; format: physicochemical
[11] = Solubility of the compound in fed state simulated intestinal fluid at compound to Lipoid S100 ratio 1:3 after 3 hrs by HPLC analysis; format: physicochemical
[12] = Solubility of the compound in fed state simulated intestinal fluid at compound to Lipoid S100 ratio 1:1 after 3 hrs by HPLC analysis; format: physicochemical
[13] = Permeability from apical to basolateral side of human Caco2 cells assessed as mass balance at compound to Lipoid S100 ratio 1:1; format: ADME, cell-based; details: Caco-2, read-out: permeability
[14] = Solubility of the compound in fasted state simulated intestinal fluid at compound to Lipoid S100 ratio 1:3 after 3 hrs by HPLC analysis in presence of 5:1 molar ratio of Lipoid S100 to tween 80; format: physicochemical
[15] = Permeability from apical to basolateral side of human Caco2 cells assessed as mass balance at compound, Lipoid S100 and gelucire 44/14 ratio 1:1:1; format: ADME, cell-based; details: Caco-2, read-out: permeability
[16] = Solubility of the compound in water at compound to Lipoid S100 ratio 1:1 after 3 hrs by HPLC analysis; format: physicochemical
[17] = Solubility of the compound in HBSS buffer containing 4% bovine serum albumin at 5 mg/mL after 3 hrs by HPLC analysis; format: physicochemical
[18] = Permeability from apical to basolateral side of human Caco2 cells assessed as mass balance at compound, Lipoid S100 and tween 80 ratio 1:1:1; format: ADME, cell-based; details: Caco-2, read-out: permeability
[19] = Solubility of the compound in fasted state simulated intestinal fluid at compound to Lipoid S100 ratio 1:1 after 3 hrs by HPLC analysis in presence of 10:1 molar ratio of Lipoid S100 to tween 80; format: physicochemical
[20] = Permeability from apical to basolateral side of human Caco2 cells assessed as mass balance at 5 mg/mL; format: ADME, cell-based; details: Caco-2, read-out: permeability
[21] = Permeability from apical to basolateral side of human Caco2 cells assessed as mass balance at compound, Lipoid S100 and pluronic f127 ratio 1:1:1; format: ADME, cell-based; details: Caco-2, read-out: permeability
[22] = Solubility of the compound in fasted state simulated intestinal fluid at compound to Lipoid S100 ratio 1:3 after 3 hrs by HPLC analysis; format: physicochemical
[23] = Permeability from apical to basolateral side of human Caco2 cells assessed as mass balance at compound to Lipoid S100 ratio 1:3 in presence of 5:1 molar ratio of Lipoid S100 to tween 80; format: ADME, cell-based; details: Caco-2, read-out: permeability
[24] = Solubility of the compound in fasted state simulated intestinal fluid at compound to Lipoid S100 ratio 1:1 after 3 hrs by HPLC analysis in presence of 3:1 molar ratio of Lipoid S100 to tween 80; format: physicochemical
[25] = Solubility of the compound in fasted state simulated intestinal fluid at compound to Lipoid S100 ratio 1:1 after 3 hrs by HPLC analysis in presence of 5:1 molar ratio of Lipoid S100 to tween 80; format: physicochemical
[26] = Permeability from apical to basolateral side of human Caco2 cells assessed as mass balance at compound, Lipoid S100 and vitamin E-TPGS ratio 1:2:1; format: ADME, cell-based; details: Caco-2, read-out: permeability
[27] = Permeability from apical to basolateral side of human Caco2 cells assessed as mass balance at compound, Lipoid S100 and vitamin E-TPGS ratio 1:1:1; format: ADME, cell-based; details: Caco-2, read-out: permeability
[28] = Solubility of the compound in fasted state simulated intestinal fluid at compound to Lipoid S100 ratio 1:3 after 3 hrs by HPLC analysis in presence of 10:1 molar ratio of Lipoid S100 to tween 80; format: physicochemical
[29] = Solubility of the compound in water at compound to Lipoid S100 ratio 1:3 after 3 hrs by HPLC analysis; format: physicochemical
[30] = Apparent permeability from apical to basolateral side of human Caco2 cells at compound, Lipoid S100 and pluronic f127 ratio 1:1:1 using modified fed state simulated intestinal fluid; format: ADME, cell-based; details: Caco-2
[31] = Solubility of the compound in fasted state simulated intestinal fluid at compound, Lipoid S100 and pluronic f127 ratio 1:1:1 after 3 hrs by HPLC analysis; format: physicochemical
[32] = Apparent permeability from apical to basolateral side of human Caco2 cells at compound, Lipoid S100 and pluronic f127 ratio 1:1:1 using HBSS buffer; format: ADME, cell-based; details: Caco-2
[33] = Permeability from apical to basolateral side of human Caco2 cells assessed as mass balance at compound to Lipoid S100 ratio 1:3; format: ADME, cell-based; details: Caco-2, read-out: permeability
[34] = Solubility of the compound in water at pH 6.5; format: physicochemical
[35] = Permeability from apical to basolateral side of human Caco2 cells assessed as mass balance at compound, Lipoid S100 and pluronic f68 ratio 1:1:1; format: ADME, cell-based; details: Caco-2, read-out: permeability
[36] = Apparent permeability from apical to basolateral side of human Caco2 cells at compound, Lipoid S100 and pluronic f127 ratio 1:1:1 using modified fasted state simulated intestinal fluid; format: ADME, cell-based; details: Caco-2
[37] = Solubility of the compound in fed state simulated intestinal fluid at 5 mg/mL after 3 hrs by HPLC analysis; format: physicochemical
Caco-2 = test: Permeability from apical to basolateral side of human Caco2 cells at compound to Lipoid S100 ratio 1:3 in presence of 5:1 molar ratio of Lipoid S100 to tween 80; format: ADME, cell-based; details: BLD = below limit of detection
[38] = Solubility of the compound in fasted state simulated intestinal fluid at 5 mg/mL after 3 hrs by HPLC analysis; format: physicochemical
Plasma [39] = test: Plasma concentration in rat at 240 mg/kg, po administered using compound, Lipoid S100 and pluronic f127 ratio 1:1:1 formulation relative to non-formulated compound after 2 hrs; format: ADME, organism-based; set-up: dose 240 mg/kg, route oral; details: in vivo
Plasma [40] = test: Plasma concentration in rat at 240 mg/kg, po administered using compound, Lipoid S100 and pluronic f127 ratio 1:1:1 formulation; format: ADME, organism-based; set-up: dose 240 mg/kg, route oral; details: in vivo
Prostaglandin E synthase = target: T1, Prostaglandin E synthase (Homo sapiens, UniProt O14684); test: Inhibition of mPGES1
T1 sequence (O14684 whole entry): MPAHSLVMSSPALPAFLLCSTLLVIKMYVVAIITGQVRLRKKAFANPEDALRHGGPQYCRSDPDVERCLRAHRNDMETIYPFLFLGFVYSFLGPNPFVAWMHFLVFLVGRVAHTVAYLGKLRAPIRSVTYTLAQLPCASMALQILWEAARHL

Compound	Drug uptake (Brain [1]) [ng/g]	Drug uptake (Brain [2]) [ng/g]	fold change (FC) (Plasma [3])	Kp at 8 h [4]	Kp at 8 h [5]	solubility at 3 h [6] [µg/mL]	fold change (FC) (Plasma [7])	solubility at 3 h [9] [µg/mL]	solubility at 3 h [10] [µg/mL]	solubility at 3 h [11] [µg/mL]	solubility at 3 h [12] [µg/mL]	recovery [13] [%]	solubility at 3 h [14] [µg/mL]	recovery [15] [%]	solubility at 3 h [16] [µg/mL]	recovery [18] [%]	solubility at 3 h [19] [µg/mL]	recovery at 5 mg/mL [20] [%]	recovery [21] [%]	solubility at 3 h [22] [µg/mL]	further results
CC(=O)O[C@@H]1CC[C@@]2(C)[C@@H](CC[C@]3(C)[C@@H]2CC=C2[C@@H]4CC(C)(C)CC[C@]4(C)CC[C@]23C)[C@@]1(C)C(=O)O	60.1	43	26																		
CC(=O)O[C@@H]1CC[C@@]2(C)[C@@H](CC[C@]3(C)[C@@H]2CC=C2[C@@H]4[C@@H](C)[C@H](C)CC[C@]4(C)CC[C@]23C)[C@@]1(C)C(=O)O	156.1	163.7	26																		
CC1(C)CC[C@]2(C)CC[C@]3(C)C(=CC[C@@H]4[C@@]5(C)CC[C@@H](O)[C@](C)(C(=O)O)[C@@H]5CC[C@]43C)[C@@H]2C1	2443.9	485.1	26	0.18	4.4																
C[C@H]1[C@H](C)CC[C@]2(C)CC[C@]3(C)C(=CC(=O)[C@@H]4[C@@]5(C)CC[C@@H](O)[C@](C)(C(=O)O)[C@@H]5CC[C@]43C)[C@H]12 [11-KETO BOSWELLIC ACID]	13.6	11.6				1.16 (≈ 2.46 µM)	6	400	124	183	252	93.9	293	92	5.18	96.3	78.2	101	99.9	151	solubility at 3 h [8]: 17 µg/mL (≈ 36.1 µM); solubility at 3 h [17]: 17.5 µg/mL (≈ 37.1 µM); recovery [23]: 102%; solubility at 3 h [24]: 164 µg/mL; solubility at 3 h [25]: 109 µg/mL; recovery [26]: 99.8%; recovery [27]: 101%; solubility at 3 h [28]: 246 µg/mL; solubility at 3 h [29]: 192 µg/mL; Papp A→B [30]: 3.2 ×10⁻⁶ cm/s; solubility at 3 h [31]: 395 µg/mL; Papp A→B [32]: 2.9 ×10⁻⁶ cm/s; recovery [33]: 96%; solubility [34]: 73.1 µg/mL (≈ 155 µM); recovery [35]: 90.1%; Papp A→B [36]: 3.7 ×10⁻⁶ cm/s; solubility at 3 h [37]: 73.1 µg/mL (≈ 155 µM); permeability (Caco-2): BLD; solubility at 3 h [38]: 15.9 µg/mL (≈ 33.8 µM); fold change (FC) (Plasma [39]): 26
CC(=O)O[C@@H]1CC[C@@]2(C)[C@@H](CC[C@]3(C)[C@@H]2C(=O)C=C2[C@@H]4[C@@H](C)[C@H](C)CC[C@]4(C)CC[C@]23C)[C@@]1(C)C(=O)O [AKBA]	203.8	37.5		0.07	2.2	0.2 (≈ 0.39 µM)	6	69.5	24.2	35.8	48	88.3	59.5	90.7	0.87	93.3	13.4	95.2	101	29.7	recovery [23]: 104%; solubility at 3 h [24]: 27.6 µg/mL; solubility at 3 h [25]: 18.2 µg/mL; concentration (Plasma [40]): 1700 nM; recovery [26]: 98%; recovery [27]: 98.8%; solubility at 3 h [28]: 44.7 µg/mL; solubility at 3 h [29]: 51.4 µg/mL; Papp A→B [30]: 2.8 ×10⁻⁶ cm/s; solubility at 3 h [31]: 65.3 µg/mL; Papp A→B [32]: 2.5 ×10⁻⁶ cm/s; recovery [33]: 96.4%; solubility [34]: > 60 µg/mL; recovery [35]: 87.8%; Papp A→B [36]: 3.1 ×10⁻⁶ cm/s; solubility at 3 h [37]: 13.2 µg/mL (≈ 25.8 µM); permeability (Caco-2): BLD; solubility at 3 h [38]: 3.05 µg/mL (≈ 5.95 µM); fold change (FC) (Plasma [39]): 14
C[C@H]1[C@H](C)CC[C@]2(C)CC[C@]3(C)C(=CC[C@@H]4[C@@]5(C)CC[C@@H](O)[C@](C)(C(=O)O)[C@@H]5CC[C@]43C)[C@H]12 [BOSWELLIC ACID]	5908.2	1066.6	26	0.2	5.5																IC50 (Prostaglandin E synthase): 5 µM

Source: ChEMBL document CHEMBL2150989, “Effect of phospholipid-based formulations of Boswellia serrata extract on the solubility, permeability, and absorption of the individual boswellic acid constituents present” (J Nat Prod, 2012)
